ChEMBL document CHEMBL1201862, “PubChem BioAssay data set” (2004)
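Test compounds were applied to cells in 96-well plates for 48 hours at 5 doses. At the GI50, growth is halved.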 Active and inactive are the calls of the source. Rule as the data show it: active = GI50 up to about 1.1 µM and inactive = higher.

Experiments:
Test in all cases: NCI tumour cell line growth inhibition, 48 h
T47D = test system: T47D
RPMI-8226 = test system: RPMI-8226
LOX IMVI = test system: LOX IMVI
HCC 2998 = test system: HCC 2998
PC-3 = test system: PC-3
SW-620 = test system: SW-620
DU-145 = test system: DU-145
UACC-257 = test system: UACC-257
IGROV-1 = test system: IGROV-1
MDA-MB-435 = test system: MDA-MB-435
UACC-62 = test system: UACC-62
786-0 = test system: 786-0
CAKI-1 = test system: CAKI-1
NCI-H23 = test system: NCI-H23
HOP-62 = test system: HOP-62
SK-OV-3 = test system: SK-OV-3
HL-60 = test system: HL-60
TK-10 = test system: TK-10
NCI-H522 = test system: NCI-H522
MDA-N = test system: MDA-N

Row | SMILES | GI50 (T47D) | GI50 (RPMI-8226) | GI50 (LOX IMVI) | GI50 (HCC 2998) | GI50 (PC-3) | GI50 (SW-620) | GI50 (DU-145) | GI50 (UACC-257) | GI50 (IGROV-1) | GI50 (MDA-MB-435) | GI50 (UACC-62) | GI50 (786-0) | GI50 (CAKI-1) | GI50 (NCI-H23) | GI50 (HOP-62) | GI50 (SK-OV-3) | GI50 (HL-60) | GI50 (TK-10) | GI50 (NCI-H522) | GI50 (MDA-N)
1 | COc1ccccc1NC(=S)N/N=C/c1c(C)n(C)n(-c2ccccc2)c1=O | > 100 µM (inactive) | > 100 µM (inactive) | 49.8 µM (inactive) | > 100 µM (inactive) | > 100 µM (inactive) | 91.8 µM (inactive) | 40.8 µM (inactive) | > 100 µM (inactive) | > 100 µM (inactive) | 34.6 µM (inactive) | > 100 µM (inactive) | > 100 µM (inactive) | > 100 µM (inactive) | > 100 µM (inactive) | 53.3 µM (inactive) | 35.3 µM (inactive) | > 100 µM (inactive) | > 100 µM (inactive) | – | –
2 | CC12CC(=O)Nc3ccccc3N1C(c1ccccc1)=NO2 (centres undefined) | – | > 100 µM (inactive) | – | > 100 µM (inactive) | > 100 µM (inactive) | > 100 µM (inactive) | > 100 µM (inactive) | > 100 µM (inactive) | > 100 µM (inactive) | > 100 µM (inactive) | > 100 µM (inactive) | > 100 µM (inactive) | > 100 µM (inactive) | > 100 µM (inactive) | > 100 µM (inactive) | > 100 µM (inactive) | > 100 µM (inactive) | > 100 µM (inactive) | > 100 µM (inactive) | > 100 µM (inactive)
3 | O=C1CSC(c2ccccc2O)N1c1ccc(Oc2ccc(Cl)cc2)c(Cl)c1 (centres undefined) | 11.7 µM (inactive) | 19.8 µM (inactive) | 16.6 µM (inactive) | 17.7 µM (inactive) | 22.3 µM (inactive) | 31.4 µM (inactive) | 21.1 µM (inactive) | 26.2 µM (inactive) | 8.91 µM (inactive) | 21.5 µM (inactive) | 16.4 µM (inactive) | 18.8 µM (inactive) | 23.3 µM (inactive) | 18.1 µM (inactive) | 18.2 µM (inactive) | 21 µM (inactive) | 16.6 µM (inactive) | 36.1 µM (inactive) | 15.3 µM (inactive) | –
4 | CCOC(=O)C1CCC(=O)N1C(=O)c1ccccc1 (centres undefined) | > 100 µM (inactive) | > 100 µM (inactive) | 92.3 µM (inactive) | > 100 µM (inactive) | > 100 µM (inactive) | > 100 µM (inactive) | > 100 µM (inactive) | > 100 µM (inactive) | > 100 µM (inactive) | > 100 µM (inactive) | 7.83 µM (inactive) | > 100 µM (inactive) | > 100 µM (inactive) | > 100 µM (inactive) | > 100 µM (inactive) | – | > 100 µM (inactive) | > 100 µM (inactive) | > 100 µM (inactive) | –
5 | Cn1c2ccccc2n2c3ncccc3c(=O)c(C#N)c12 | 15.2 µM (inactive) | > 100 µM (inactive) | 5.96 µM (inactive) | 21.5 µM (inactive) | 19.5 µM (inactive) | 7.85 µM (inactive) | 6.5 µM (inactive) | 26.5 µM (inactive) | 5.32 µM (inactive) | 26.7 µM (inactive) | 8.41 µM (inactive) | 8.83 µM (inactive) | 5.31 µM (inactive) | 10.2 µM (inactive) | 5.18 µM (inactive) | 17.3 µM (inactive) | 2.09 µM (inactive) | 50.6 µM (inactive) | 9.02 µM (inactive) | –
6 | CC1=CC(C)(C)Nc2ccc(CSc3ccccc3)cc21 | – | 14.9 µM (inactive) | 30.7 µM (inactive) | 17.2 µM (inactive) | 28.9 µM (inactive) | 23 µM (inactive) | 22.8 µM (inactive) | 26.7 µM (inactive) | 52.1 µM (inactive) | 25.3 µM (inactive) | 41.1 µM (inactive) | 23.2 µM (inactive) | 36.1 µM (inactive) | 32.6 µM (inactive) | 29.7 µM (inactive) | 31.3 µM (inactive) | – | 39.5 µM (inactive) | 16.8 µM (inactive) | 22 µM (inactive)
7 | CC(C)N(/C(F)=N\C(=O)Nc1ccccc1C(F)(F)F)C(C)C | – | 24.4 µM (inactive) | 32 µM (inactive) | 31.3 µM (inactive) | 33.3 µM (inactive) | 44.7 µM (inactive) | – | 55.1 µM (inactive) | 33.8 µM (inactive) | – | > 10 µM (inactive) | 69 µM (inactive) | 37.4 µM (inactive) | 67 µM (inactive) | 75 µM (inactive) | 33.7 µM (inactive) | 31 µM (inactive) | 52.5 µM (inactive) | – | 66.5 µM (inactive)
8 | CC(=O)ON(C(C)=O)c1ccc(-c2nc3ccccc3s2)cc1C | – | 48.2 µM (inactive) | 37.4 µM (inactive) | 67.6 µM (inactive) | 30.5 µM (inactive) | 38.3 µM (inactive) | 37.7 µM (inactive) | 50 µM (inactive) | 13 µM (inactive) | 60.3 µM (inactive) | 44.3 µM (inactive) | 60 µM (inactive) | 10.4 µM (inactive) | 52.7 µM (inactive) | 21.2 µM (inactive) | – | – | 2.96 µM (inactive) | 38.5 µM (inactive) | 75.5 µM (inactive)
9 | N#Cc1sc2c(c1OC(=O)c1ccc(Cl)cc1Cl)c(=O)n(-c1ccccc1)c(=S)n2-c1ccccc1 | 26.6 µM (inactive) | 31.7 µM (inactive) | 19.2 µM (inactive) | 29.2 µM (inactive) | 25.4 µM (inactive) | 24.5 µM (inactive) | 36.1 µM (inactive) | 71.9 µM (inactive) | 17 µM (inactive) | 19.7 µM (inactive) | 18.4 µM (inactive) | 26 µM (inactive) | 23.7 µM (inactive) | 18.8 µM (inactive) | 26.4 µM (inactive) | 32.7 µM (inactive) | 19.6 µM (inactive) | 33.6 µM (inactive) | 1.12 µM (active) | –
10 | C/C(=N/NC(=O)c1ccncc1)c1ccc(NC(=O)C(=O)Nn2c(S)nc3ccccc3c2=O)cc1 | > 100 µM (inactive) | > 100 µM (inactive) | > 100 µM (inactive) | > 100 µM (inactive) | > 100 µM (inactive) | > 100 µM (inactive) | > 100 µM (inactive) | > 100 µM (inactive) | 37.2 µM (inactive) | > 100 µM (inactive) | > 100 µM (inactive) | > 100 µM (inactive) | > 100 µM (inactive) | > 100 µM (inactive) | > 100 µM (inactive) | > 100 µM (inactive) | – | > 100 µM (inactive) | > 100 µM (inactive) | –
11 | COc1cc2c(cc1OC)C(OC)N(C)c1c-2ccc2cc3c(cc12)OCO3 (centres undefined) | – | 1.47 µM (inactive) | 5.36 µM (inactive) | 1.65 µM (inactive) | 1.33 µM (inactive) | 0.571 µM (active) | 2.26 µM (inactive) | 12.1 µM (inactive) | 0.805 µM (active) | 69 µM (inactive) | 0.8 µM (active) | 1.86 µM (inactive) | 1.98 µM (inactive) | 1.67 µM (inactive) | 1.4 µM (inactive) | 0.916 µM (active) | 2.22 µM (inactive) | 6.75 µM (inactive) | 0.152 µM (active) | 13.6 µM (inactive)
